# Data as given in PubChem BioAssay (NCI).
# “And” between values parts separate entries of the source, which are not always exact repeats. Equal entries are not always repeated.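 Grown in 96-well plates, cells were treated for 48 hours with each compound at five concentrations. Insufficient inhibition: endpoint recorded as highest concentration tested. At the GI50, growth is halved. TGI: concentration producing complete growth inhibition.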
# What was measured:
# Assay in all cases: inhibition of tumour cell growth, NCI panel, 48 h
# SNB-19 CNS = tested on: SNB-19 CNS
# NCI-H23 lung = tested on: NCI-H23 lung
# MCF7 breast = tested on: MCF7 breast
# HOP-62 NSCLC = tested on: HOP-62 NSCLC
# CAKI-1 renal = tested on: CAKI-1 renal
# KM12 colon = tested on: KM12 colon
# SF-295 CNS = tested on: SF-295 CNS
# COLO 205 colon = tested on: COLO 205 colon
# SF-268 CNS = tested on: SF-268 CNS
# RPMI-8226 leukemia = tested on: RPMI-8226 leukemia
Structure (SMILES),TGI (SNB-19 CNS),TGI (NCI-H23 lung),TGI (MCF7 breast),TGI (HOP-62 NSCLC),TGI (CAKI-1 renal),TGI (KM12 colon),TGI (SF-295 CNS),TGI (COLO 205 colon),TGI (SF-268 CNS),TGI (RPMI-8226 leukemia),GI50 (SNB-19 CNS),GI50 (NCI-H23 lung),GI50 (MCF7 breast),GI50 (HOP-62 NSCLC),GI50 (CAKI-1 renal),GI50 (KM12 colon),GI50 (SF-295 CNS),GI50 (COLO 205 colon),GI50 (SF-268 CNS),GI50 (RPMI-8226 leukemia)
O=C(O)c1cc2ccccc2c(O)c1O,35.8 µM,22.5 µM,28.4 µM,33 µM,33.9 µM,30.4 µM,29.4 µM,31.4 µM,32 µM,> 76.1 µM,,,,,,,,,,
Cc1c(N=Nc2ccc([N+](=O)[O-])cc2)nc2scc(-c3ccccc3)n12,> 100 µM,> 100 µM,> 100 µM,> 100 µM,> 100 µM,> 100 µM,> 100 µM,> 100 µM,> 100 µM,> 100 µM,,,,,,,,,,
O=C(/C=C/c1ccc(OCC(=O)N2CCN(c3ccccc3)CC2)cc1)c1ccc(Cl)cc1,50.7 µM,> 100 µM,> 100 µM,55.3 µM,> 100 µM,> 100 µM,54.7 µM,> 100 µM,> 92.7 µM,> 100 µM,,,,,,,,,,
Nc1ccccc1C#C/C=C\C#Cc1ccccc1C(F)(F)F,58.7 µM,5.17 µM,> 47.5 µM,18.7 µM,10.1 µM,12.7 µM,3.62 µM,> 37.2 µM,20.4 µM,> 51 µM,10.5 µM,0.397 µM,1.56 µM,0.588 µM,1.1 µM,1 µM,0.958 µM,1.92 µM,1.67 µM,1.46 µM
COc1c(O)c2c(c3cc(C(=O)N4CCc5c4c(O)c(OC)c4[nH]c(C(=O)N6CC7CC78C6=CC(=O)c6[nH]cc(C)c68)cc54)[nH]c13)CCN2C(N)=O (centres undefined),76.8 nM and 3.69 µM and 0.185 µg/mL,0.00242 µM,0.397 µM,14.6 nM and 0.0745 µg/mL,5.31 nM and > 100 µM and 0.00582 µg/mL,9.37 nM and 929 nM and 0.0348 µg/mL,4.8 nM and 0.00618 µg/mL,3.83 nM and 5.18 µM and 0.00504 µg/mL,47.4 nM and > 100 µM and 0.00521 µg/mL,313 nM and 11.9 µM and 0.159 µg/mL,,,,2.51 nM and 0.0165 µg/mL,,,1.74 ng/mL,,,
CCCC[C@H]1C(=O)O[C@H](C)[C@H](NC(=O)c2cccc(NC=O)c2O)C(=O)O[C@@H](C)[C@@H]1OC(=O)CC(C)C,63.1 µM,31.2 µM,25.8 µM,33.2 µM,40.9 µM,30.8 µM,21 µM,31.6 µM,35.5 µM,24.4 µM,,,,,,,,,,
N#Cc1c(C(=O)c2ccccc2)cnn1-c1ccccc1,> 25 µM,> 25 µM,> 25 µM,> 25 µM,> 25 µM,> 25 µM,> 25 µM,> 25 µM,> 25 µM,> 25 µM,> 25 µM,> 25 µM,> 25 µM,> 25 µM,> 25 µM,> 25 µM,> 25 µM,> 25 µM,> 25 µM,> 25 µM
C[C@@H]1C=C(CCCCCCCCCCC[C@H](O)[C@@H]2CCC(=O)O2)C(=O)O1,> 100 µM,99.1 µM,> 100 µM,> 100 µM,> 100 µM,65 µM,48.6 µM,40.6 µM,> 100 µM,,86.5 µM,24.2 µM,39.2 µM,40.2 µM,35.8 µM,23.6 µM,19.8 µM,19.1 µM,40.3 µM,
C(=N\Nc1ccccn1)/c1ccccn1,> 100 µM,> 100 µM,> 100 µM,> 100 µM,> 50.7 µM,> 100 µM,> 41.3 µM,> 100 µM,> 23.4 µM,> 100 µM,0.547 µM,0.503 µM,0.401 µM,0.38 µM,0.257 µM,0.47 µM,0.359 µM,0.356 µM,0.309 µM,6.17 µM
O=c1cccc(C#CC#C[C@H]2O[C@@H]2CO)o1,14.4 µM,1.21 µM,4.28 µM,1.54 µM,0.359 µM,3.47 µM,3.77 µM,1.58 µM,7.51 µM,0.331 µM,6.24 µM,0.347 µM,0.472 µM,0.423 µM,0.189 µM,0.986 µM,1.7 µM,0.665 µM,2.49 µM,0.101 µM
OC1(C(O)(c2ccc(-c3ccccc3)cc2)c2ccc(-c3ccccc3)cc2)CCCCC1,> 100 µM,> 100 µM,> 100 µM,> 100 µM,> 100 µM,> 100 µM,> 100 µM,> 100 µM,> 100 µM,> 100 µM,,,,,,,,,,
Cc1cn(C2CC(F)C(CO)O2)c(=O)[nH]c1=O (centres undefined),,> 100 µM,> 100 µM,> 100 µM,> 100 µM,> 100 µM,,> 100 µM,,> 100 µM,,> 100 µM,> 100 µM,> 100 µM,> 100 µM,> 100 µM,,> 100 µM,,> 100 µM
O=C(O)C(=Cc1ccnc2ccccc12)C(=O)O,> 100 µM,> 100 µM,> 100 µM,> 100 µM,> 100 µM,> 100 µM,> 100 µM,> 100 µM,> 100 µM,> 100 µM,,,,,,,,,,
C=C1[C@@H](C)[C@H]2[C@H](Cc3ccccc3)NC(=O)[C@]23OC(=O)/C=C/[C@H](O)CCC[C@@H](C)C/C=C/[C@H]3[C@@H]1O,64.1 µM,89.7 µM,> 100 µM,15 µM,4.51 µM,> 100 µM,53.5 µM,> 100 µM,73.6 µM,39.6 µM,,,,,,,,,,
COc1ccccc1-[n+]1cc(-c2ccc(-c3ccccc3)cc2)n2c1CCCCC2,12.1 µM,10.1 µM,11.2 µM,15.4 µM,33.4 µM,3.17 µM,4.03 µM,2.62 µM,14.8 µM,1.53 µM,0.261 µM,0.101 µM,0.229 µM,1.29 µM,11.5 µM,0.288 µM,0.359 µM,0.236 µM,0.423 µM,
O=C1CCC(Cc2ccc(Cl)cc2Cl)C(=O)N1 (centres undefined),> 100 µM,> 100 µM,> 100 µM,> 100 µM,> 100 µM,,> 100 µM,> 100 µM,> 100 µM,> 100 µM,,,,,,,,,,
NC(=O)c1cnc(N[C@@H]2CCCC[C@@H]2N)nc1Nc1cccc(-n2nccn2)c1,25 µM,17.2 µM,10.2 µM,17.7 µM,8.09 µM,10.2 µM,26.7 µM,4.56 µM,19.7 µM,23 µM,10.7 µM,3.24 µM,2.33 µM,4.69 µM,2.47 µM,2.15 µM,13.3 µM,1.81 µM,5.82 µM,6.7 µM
C/C(=N/S(=O)(=O)c1ccc(Cl)c(Cl)c1)OCC(C)(C)C,> 100 µM,> 100 µM,> 100 µM,> 100 µM,> 100 µM,> 100 µM,> 100 µM,> 100 µM,> 100 µM,> 100 µM,,,,,,,,,,
O=Cc1c(-c2cc(O)ccc2O)nc2sccn12,> 100 µM,51.4 µM,> 100 µM,26.4 µM,4.09 µM,20.5 µM,74.6 µM,> 100 µM,38.3 µM,8.09 µM,42.6 µM,20.9 µM,14.3 µM,10.4 µM,0.958 µM,5.05 µM,25 µM,32.3 µM,3.83 µM,1.76 µM
CC1=C(/C=C/C(C)=C\C=C\C(C)=C\C(=O)Nc2ccc3c(c2)OCO3)C(C)(C)CCC1,> 100 µM,> 100 µM,> 100 µM,> 100 µM,> 100 µM,> 100 µM,> 100 µM,> 100 µM,> 100 µM,> 100 µM,> 100 µM,17.7 µM,11.2 µM,> 100 µM,> 100 µM,39.2 µM,31 µM,37.8 µM,> 100 µM,2.93 µM
CC12CCC3C(CC=C4CC(O)CCC43C)C1C/C(=C\N1CCCC1)C2=O (centres undefined),> 100 µM,> 100 µM,> 100 µM,> 100 µM,> 100 µM,> 100 µM,> 100 µM,> 100 µM,> 100 µM,> 100 µM,> 100 µM,> 100 µM,> 100 µM,> 100 µM,61.2 µM,73.3 µM,57.2 µM,> 100 µM,> 100 µM,37 µM
O=C(/C=C/c1cccnc1)NCCCCC1CCN(C(=O)c2ccccc2)CC1,> 100 µM,> 100 µM,> 100 µM,> 100 µM,> 100 µM,> 100 µM,> 100 µM,> 100 µM,> 100 µM,> 100 µM,0.615 µM and 4.43 µM,> 100 µM,,> 100 µM,> 100 µM,0.0145 µM and < 0.0118 µM,< 0.0256 µM,25.4 µM,> 100 µM,
C1CC[N-]CC1.C1CC[N-]CC1.C1CC[N-]CC1.C1CC[N-]CC1.[Cl][Rh][Cl],> 100 µM,,> 100 µM,> 100 µM,> 100 µM,21.8 µM,81.1 µM,9.34 µM,27.9 µM,13.6 µM,4.75 µM,,10.2 µM,4.41 µM,67.7 µM,7.04 µM,3 µM,3.17 µM,5.21 µM,3.2 µM
CCN(CC)c1ccc(/C=C\c2cc(C)c3cc(C)ccc3n2)cc1,> 100 µM,> 100 µM,> 100 µM,,> 100 µM,29.6 µM,> 100 µM,18.5 µM,> 100 µM,8.7 µM,51.7 µM,5.37 µM,2.95 µM,,5.55 µM,3.39 µM,4.19 µM,3.67 µM,6.48 µM,3.13 µM
OCCCCC#Cc1ccccc1C#Cc1ccccc1,37.2 µM,51.4 µM,48.1 µM,30.6 µM,29.1 µM,,22.6 µM,36.3 µM,37.6 µM,37.7 µM,0.153 µM,19.8 µM,21 µM,16.3 µM,14.7 µM,,7.65 µM,12.9 µM,16.8 µM,15.9 µM
COCCn1cc(-c2csc(-c3c[nH]c4ccccc34)n2)c2cccnc21,> 100 µM,> 100 µM,> 100 µM,> 100 µM,> 100 µM,> 100 µM,> 100 µM,> 100 µM,> 100 µM,,16.2 µM,4.58 µM,1.74 µM,2.82 µM,8.36 µM,0.762 µM,3.35 µM,2.66 µM,6.98 µM,
C=C1C(=O)O[C@H]2[C@H]1CC/C(COC(=O)NCc1cc3ccccc3[nH]1)=C\CC[C@@]1(C)O[C@@H]21,20.4 µM,5.18 µM,3.26 µM,23.3 µM,,12.8 µM,20.9 µM,3.59 µM,5.4 µM,3.27 µM,5.62 µM,2.16 µM,1.45 µM,10.3 µM,,3.3 µM,8.23 µM,1.8 µM,2.08 µM,0.604 µM
CC(=O)O[C@H]1C(=O)[C@@]2(C)C(C(OC(=O)c3ccccc3)[C@]3(O)CC(OC(=O)[C@H](OC(=O)CCC(=O)O)C(NC(=O)c4ccccc4)c4ccccc4)C(C)=C1C3(C)C)C1(OC(C)=O)COC1C[C@@H]2OC(=O)CCC(=O)O (some centres undefined),> 100 µM,> 100 µM,> 100 µM,,> 100 µM,> 100 µM,,18.6 µM,> 100 µM,,,,,,> 89.2 µM and 36.3 µM,,,0.865 µM,,
